Source: article PMC4852132 (Biochemistry, 2016)
“And” between values parts separate entries of the source, which are not always exact repeats. Equal entries are not always repeated. Where two headings read alike, the source gives them in different places.

Assays:
E1p-ec [1] = biological target: T1, E1p-ec (Escherichia coli, UniProt P0AFG8)
PDHc-ec [2] = biological target: T2, PDHc-ec (Escherichia coli, UniProt P0AFG8)
PDHc-h = PDHc-h (Homo sapiens, UniProt P08559+P11177); assay: Overall PDHc-h activity by formation of NADH at 340 nm; format: biochemical
E1p-h [3] = biological target: T3, E1p-h (Homo sapiens, UniProt P08559+P11177); assay: Quenching of intrinsic fluorescence of E1p-h; format: binding
T3 sequence (P08559 30-390): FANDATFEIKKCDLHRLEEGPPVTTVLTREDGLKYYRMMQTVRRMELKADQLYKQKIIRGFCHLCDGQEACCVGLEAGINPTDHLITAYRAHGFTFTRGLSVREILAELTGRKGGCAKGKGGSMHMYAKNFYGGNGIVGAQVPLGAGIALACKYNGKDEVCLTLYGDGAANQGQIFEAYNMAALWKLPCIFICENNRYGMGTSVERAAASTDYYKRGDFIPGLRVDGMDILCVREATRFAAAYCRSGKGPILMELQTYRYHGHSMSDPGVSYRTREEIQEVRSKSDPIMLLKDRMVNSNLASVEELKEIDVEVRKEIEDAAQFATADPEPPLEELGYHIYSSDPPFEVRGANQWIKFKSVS
T3 sequence (P11177 31-359): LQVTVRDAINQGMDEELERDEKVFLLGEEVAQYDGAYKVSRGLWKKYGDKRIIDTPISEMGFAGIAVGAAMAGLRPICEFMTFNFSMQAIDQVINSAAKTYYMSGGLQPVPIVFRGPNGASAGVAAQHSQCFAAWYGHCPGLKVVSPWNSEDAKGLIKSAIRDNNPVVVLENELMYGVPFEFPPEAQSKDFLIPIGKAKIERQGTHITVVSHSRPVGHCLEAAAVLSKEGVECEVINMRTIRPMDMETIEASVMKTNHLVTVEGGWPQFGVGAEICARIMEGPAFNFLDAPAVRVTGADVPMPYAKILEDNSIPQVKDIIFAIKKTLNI

DXPS [4] = biological target: T4, DXPS (Escherichia coli, UniProt P77488); details: apo-DXPS with 0.15 mM cofactor, 5 °C, 15 h
E1p-h [5] = biological target: T3, E1p-h; details: MeOThDP bound on E1p-h; CD309 vs pH
E1p-h [6] = biological target: T3, E1p-h; details: ThDP on E1p-h; cited from earlier work
PDHc-ec [7] = biological target: T2, PDHc-ec; details: ThDP binding to PDHc-ec; cited from earlier work
E1o-ec = E1o-ec (Escherichia coli, UniProt P0AFG3); assay: E1o-ec specific activity; format: biochemical
DXPS [8] = biological target: T4, DXPS; assay: biochemical
E1p-ec [9] = biological target: T1, E1p-ec; details: E1p-ec complexed with ThDP; cited from earlier work
E1p-ec [10] = biological target: T1, E1p-ec; assay: biochemical
E1o-h = biological target: T5, E1o-h (Homo sapiens, UniProt Q02218); assay: E1o-h specific activity; format: biochemical
T5 sequence (Q02218 41-1023): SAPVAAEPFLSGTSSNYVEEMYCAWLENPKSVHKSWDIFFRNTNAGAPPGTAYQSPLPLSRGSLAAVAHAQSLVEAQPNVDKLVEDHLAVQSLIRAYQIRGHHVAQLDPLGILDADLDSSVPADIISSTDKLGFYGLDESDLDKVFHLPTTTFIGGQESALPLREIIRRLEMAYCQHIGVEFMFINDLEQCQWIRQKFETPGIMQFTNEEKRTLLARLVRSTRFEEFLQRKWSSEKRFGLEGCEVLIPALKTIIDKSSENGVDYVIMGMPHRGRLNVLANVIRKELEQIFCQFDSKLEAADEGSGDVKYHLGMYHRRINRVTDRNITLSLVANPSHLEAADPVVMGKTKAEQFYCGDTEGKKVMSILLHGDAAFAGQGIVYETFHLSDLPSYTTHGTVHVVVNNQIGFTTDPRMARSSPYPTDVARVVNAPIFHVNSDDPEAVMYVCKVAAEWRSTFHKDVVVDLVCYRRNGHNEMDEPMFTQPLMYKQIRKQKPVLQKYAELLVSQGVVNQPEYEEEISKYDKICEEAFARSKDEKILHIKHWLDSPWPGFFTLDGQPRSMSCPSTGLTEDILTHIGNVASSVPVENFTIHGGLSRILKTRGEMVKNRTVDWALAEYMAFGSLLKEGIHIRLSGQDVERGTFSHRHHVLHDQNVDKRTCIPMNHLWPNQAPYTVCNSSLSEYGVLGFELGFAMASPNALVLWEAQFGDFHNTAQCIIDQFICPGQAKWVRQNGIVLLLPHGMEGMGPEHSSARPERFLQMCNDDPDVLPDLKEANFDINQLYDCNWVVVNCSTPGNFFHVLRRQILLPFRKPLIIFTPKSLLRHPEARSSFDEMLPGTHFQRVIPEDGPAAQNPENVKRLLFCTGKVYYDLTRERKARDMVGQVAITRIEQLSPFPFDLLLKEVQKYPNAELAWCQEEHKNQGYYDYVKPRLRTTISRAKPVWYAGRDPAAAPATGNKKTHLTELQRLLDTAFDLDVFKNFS

[11] = MeOThDP, PDHc-ec reconstituted from apo-E1p-ec, from lag phase

SMILES: COc1ncc(C[n+]2csc(CCOP(=O)(O)OP(=O)(O)O)c2C)c(N)n1 [MeOThDP, 2′-methoxythiamin diphosphate]
- rate constant of reductive acetylation of LDh-ec (E1p-ec [1]; E1p-ec complexed with MeOThDP (0.20 mM), 2 mM pyruvate): 4.4 s⁻¹
- rate constant of reductive acetylation, times slower than with ThDP (E1p-ec [1]; E1p-ec with MeOThDP vs ThDP): at least 10 times
- K1 binding constant (PDHc-ec [2]; MeOThDP, PDHc-ec reconstituted from apo-E1p-ec, E2p-ec, E3-ec, from lag phase): 300000 M⁻¹
- k2 forward rate constant of binding (PDHc-ec [2]; [11]): 0.0087 s⁻¹
- k3 forward rate constant for second cofactor binding (PDHc-ec [2]; [11]): 49 M⁻¹ s⁻¹
- k-2 dissociation rate constant (PDHc-ec [2]; [11]): 0.0033 s⁻¹
- k-3 reverse rate constant for dissociation of second cofactor (PDHc-ec [2]; [11]): 0.0069 s⁻¹
- k3 times lower than that for ThDP (PDHc-ec [2]; binding of second MeOThDP vs ThDP): ~ 14 times
- Kd (PDHc-ec [2]; read-out: Kd,MeOThDP calculated as 1/K1,MeOThDP, from Table 2): 3.45 ± 0.74 µM
- pH of maximal kcat in the overall PDHc-h activity (PDHc-h; E1p-h complexed with MeOThDP): 7.25
- percent of E1p-h fluorescence quenched (E1p-h [3]): 4%
- Kd (E1p-h [3]; read-out: Kd from quenching of E1p-h fluorescence): 16.2 ± 4.5 µM
- formation of (R)-acetolactate from pyruvate (DXPS [4]): not the case
- pKa for the ([AP] + [IP])/[APH^+] equilibrium (E1p-h [5]): 8.02 ± 0.03

SMILES: Cc1ncc(C[n+]2csc(CCOP(=O)([O-])OP(=O)(O)O)c2C)c(N)n1 [ThDP, thiamin diphosphate]
- pKa for the ([AP] + [IP])/[APH^+] equilibrium (E1p-h [6]): 7.07 ± 0.1
- overall PDHc-h activity, percent of that with ThDP (PDHc-h; cofactor 0.2 or 0.5 mM): 100%
- Kd (E1p-h [3]): 7.2 ± 0.5 µM
- percent of E1p-h fluorescence quenched (E1p-h [3]): 19%
- K1 binding constant (PDHc-ec [7]): 1.2e+06 M⁻¹
- k2 forward rate constant of binding (PDHc-ec [7]): 0.0112 s⁻¹
- k3 forward rate constant for second cofactor binding (PDHc-ec [7]): 710 M⁻¹ s⁻¹
- k-2 dissociation rate constant (PDHc-ec [7]): 0.0038 s⁻¹
- k-3 reverse rate constant for dissociation of second cofactor (PDHc-ec [7]): 0.0076 s⁻¹
- formation of (R)-acetolactate from pyruvate (DXPS [4]): formation of (R)-acetolactate
- E1o specific activity, percent of that with ThDP (E1o-ec; E1o-ec): 100%
- E1o specific activity (E1o-ec; E1o-ec alone): 0.54 ± 0.03 µmol min^−1 (mg of E1o)^−1 and 0.54 ± 0.31 µmol min^−1 (mg of E1o)^−1
- Kd (DXPS [8]): 3.5 ± 0.1 µM
- rate constant of reductive acetylation of LDh-ec (E1p-ec [9]): 52 s⁻¹
- Kd (E1p-ec [10]): 7 ± 0.9 µM
- E1o specific activity, percent of that with ThDP (E1o-h; E1o-h): 100%
- E1o specific activity (E1o-h; E1o-h alone): 0.51 ± 0.02 µmol min^−1 (mg of E1o)^−1 and 0.44 ± 0.08 µmol min^−1 (mg of E1o)^−1
